Assay: apparent (effective) diffusion coefficient from internal standard-based calibration of the dispersion model
Assay type: physicochemical
Settings: coiled tube, 50 μL/min, 25° C.; sucrose internal standard and Equation 1 calibration by Mr
Description: In one example, the rapid dispersion injection method is performed in a biosensor comprising a flow channel conduit that is in fluid connection with a flow cell conduit downstream from the analyte sample injection point. The flow channel conduit is tightly coiled around a vertically-oriented support and is preferably filled with a carrier fluid free of analyte prior to the analyte sample injection. Although it is preferred to use a vertically-oriented coil, it is not essential and other configurations are possible. The flow cell conduit houses at least two sensing regions, a first sensing region having one or more ligands immobilized on its surface and a second sensing region free of ligand. A first fluid sample comprising a reference material (e.g. sucrose) of sufficient molecular weight and concentration to elicit a bulk refractive index response is injected into the flow channel conduit under conditions sufficient to cause the reference material to undergo a dispersion event in route to the flow cell thereby producing a concentration gradient. […] The bulk refractive index response of the reference material is recorded at the second sensing surface as the first fluid sample flows continuously through the flow cell thereby generating a standard curve. The standard curve provides an internal standard which acts as a witness to the particular injection conditions of that assay. The standard curve is then fitted to the dispersion model (Equations 2 and 3 described below) to calculate a reference diffusion coefficient. […]
In brief, the universal calibration function was determined by measuring the bulk refractive index response of eight different compounds of varying molecular (Mr) under twenty-seven experimental dispersion conditions. […] An apparent diffusion coefficient (D′) was obtained for the eight compounds by fitting the dispersion model defined by Equations 2 and 3 (set forth below) to each measured bulk refractive index response curve. […]

Dapp (apparent / effective diffusion coefficient) | Compound
9.67E−10 m^2s^−1 | CC(=O)Nc1nnc(S(N)(=O)=O)s1 [Acetazolamide, acetazolamide]
1.01E−09 m^2s^−1 | NS(=O)(=O)c1ccc(C(=O)O)cc1 [CBS, 4-carboxybenzenesulfonamide]
8.29E−10 m^2s^−1 | NS(=O)(=O)c1cc(C(=O)O)c(NCc2ccco2)cc1Cl [Furosemide, furosemide]

Reference: US9990464B1, “Label-free biomolecular interaction analysis using a rapid analyte dispersion injection method” (SENSIQ TECHNOLOGIES, INC., priority 2012, dated 2018)
